Assay results from ChEMBL document CHEMBL1201862, “PubChem BioAssay data set” (2004).
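A five-concentration, 48-hour dose response in 96-well plates underlies each endpoint, interpolated linearly between surrounding concentrations. At the GI50, growth is halved.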 Activity calls are given as the source filed them. No stated cut-off is given here; in the data, active = GI50 up to about 1.1 µM and inactive = higher.

What was measured:
Assay in all cases: inhibition of tumour cell growth, NCI panel, 48 h
NCI-H226 = test system: NCI-H226
786-0 = test system: 786-0
EKVX = test system: EKVX
UO-31 = test system: UO-31
A498 = test system: A498
A549 = test system: A549
COLO 205 = test system: COLO 205
OVCAR-3 = test system: OVCAR-3
Malme-3M = test system: Malme-3M
SK-OV-3 = test system: SK-OV-3
SK-MEL-28 = test system: SK-MEL-28
M19-MEL = test system: M19-MEL
OVCAR-8 = test system: OVCAR-8
DMS-273 = test system: DMS-273
DLD-1 = test system: DLD-1
M14 = test system: M14
K562 = test system: K562
NCI-H522 = test system: NCI-H522
RXF 631 = test system: RXF 631
SNB-75 = test system: SNB-75
HOP-92 = test system: HOP-92
HCC 2998 = test system: HCC 2998
SF-539 = test system: SF-539
HT-29 = test system: HT-29
UACC-62 = test system: UACC-62
XF498 = test system: XF498
SR = test system: SR
LXFL 529 = test system: LXFL 529
RXF 393 = test system: RXF 393
KM-20L2 = test system: KM-20L2
U-251 = test system: U-251
IGROV-1 = test system: IGROV-1
SN12C = test system: SN12C
SF-268 = test system: SF-268
NCI-H23 = test system: NCI-H23
HCT-116 = test system: HCT-116
HL-60 = test system: HL-60
KM12 = test system: KM12
SF-295 = test system: SF-295
TK-10 = test system: TK-10
OVCAR-4 = test system: OVCAR-4
SW-620 = test system: SW-620
SNB-78 = test system: SNB-78
HOP-62 = test system: HOP-62
DMS-114 = test system: DMS-114
SNB-19 = test system: SNB-19
HOP-18 = test system: HOP-18
UACC-257 = test system: UACC-257
SK-MEL-5 = test system: SK-MEL-5
LOX IMVI = test system: LOX IMVI
CAKI-1 = test system: CAKI-1
OVCAR-5 = test system: OVCAR-5
MOLT-4 = test system: MOLT-4
SK-MEL-2 = test system: SK-MEL-2
CCRF-CEM = test system: CCRF-CEM
ACHN = test system: ACHN
BT-549 = test system: BT-549
MDA-N = test system: MDA-N
Hs-578T = test system: Hs-578T
DU-145 = test system: DU-145
MDA-MB-231 = test system: MDA-MB-231
MDA-MB-435 = test system: MDA-MB-435
NCI-H460 = test system: NCI-H460
HCT-15 = test system: HCT-15
T47D = test system: T47D
MCF7 = test system: MCF7
RPMI-8226 = test system: RPMI-8226
PC-3 = test system: PC-3

O=Cc1[nH]c2ccccc2c1Br
GI50 (NCI-H226): 29.8 µM (inactive)
GI50 (786-0): 28 µM (inactive)
GI50 (EKVX): 35.9 µM (inactive)
GI50 (UO-31): 30.8 µM (inactive)
GI50 (A498): 16.8 µM (inactive)
GI50 (A549): > 100 µM (inactive)
GI50 (COLO 205): 17.7 µM (inactive)
GI50 (OVCAR-3): 21.8 µM (inactive)
GI50 (Malme-3M): 18.5 µM (inactive)
GI50 (SK-OV-3): 20.8 µM (inactive)
GI50 (SK-MEL-28): 25.1 µM (inactive)
GI50 (M19-MEL): 22.1 µM (inactive)
GI50 (OVCAR-8): 23.7 µM (inactive)
GI50 (DMS-273): 17.8 µM (inactive)
GI50 (DLD-1): 22.6 µM (inactive)
GI50 (M14): 19.3 µM (inactive)
GI50 (K562): 15 µM (inactive)
GI50 (NCI-H522): 56.8 µM (inactive)
GI50 (RXF 631): 20 µM (inactive)
GI50 (SNB-75): 19.2 µM (inactive)
GI50 (HOP-92): 26.8 µM (inactive)
GI50 (HCC 2998): 60.5 µM (inactive)
GI50 (SF-539): 15.3 µM (inactive)
GI50 (HT-29): 25.1 µM (inactive)
GI50 (UACC-62): 16.9 µM (inactive)
GI50 (XF498): 30.1 µM (inactive)
GI50 (SR): 21.7 µM (inactive)
GI50 (LXFL 529): 25.5 µM (inactive)
GI50 (RXF 393): 25.4 µM (inactive)
GI50 (KM-20L2): 22.2 µM (inactive)
GI50 (U-251): 21.6 µM (inactive)
GI50 (IGROV-1): 26.7 µM (inactive)
GI50 (SN12C): 22.6 µM (inactive)
GI50 (SF-268): 22.9 µM (inactive)
GI50 (NCI-H23): 30.3 µM (inactive)
GI50 (HCT-116): 18.5 µM (inactive)
GI50 (HL-60): 13.8 µM (inactive)
GI50 (KM12): 26.3 µM (inactive)
GI50 (SF-295): 38.4 µM (inactive)
GI50 (TK-10): 36.6 µM (inactive)
GI50 (OVCAR-4): 31.3 µM (inactive)
GI50 (SW-620): 34.6 µM (inactive)
GI50 (SNB-78): 15.8 µM (inactive)
GI50 (HOP-62): 18 µM (inactive)
GI50 (DMS-114): 18.5 µM (inactive)
GI50 (SNB-19): 24.8 µM (inactive)
GI50 (HOP-18): 27.7 µM (inactive)
GI50 (UACC-257): 28.5 µM (inactive)
GI50 (SK-MEL-5): 16.5 µM (inactive)
GI50 (LOX IMVI): 26.7 µM (inactive)
GI50 (CAKI-1): > 100 µM (inactive)
GI50 (OVCAR-5): 98.4 µM (inactive)
GI50 (MOLT-4): 22.5 µM (inactive)
GI50 (SK-MEL-2): 15.2 µM (inactive)
GI50 (CCRF-CEM): 37.4 µM (inactive)
GI50 (ACHN): 26 µM (inactive)

C=C1C(=O)OC2/C=C(\COC(C)=O)CCC(OC(C)=O)C3=CC(OC3=O)C12 (configuration not stated)
GI50 (NCI-H226): 23.9 µM (inactive)
GI50 (BT-549): 5.38 µM (inactive)
GI50 (786-0): 6.56 µM (inactive)
GI50 (EKVX): 11.7 µM (inactive)
GI50 (UO-31): 17.3 µM (inactive)
GI50 (A498): 16 µM (inactive)
GI50 (A549): 20 µM (inactive)
GI50 (COLO 205): 2.14 µM (inactive)
GI50 (MDA-N): > 10 µM (inactive)
GI50 (OVCAR-3): 4.15 µM (inactive)
GI50 (Malme-3M): 2.15 µM (inactive)
GI50 (SK-OV-3): 14.6 µM (inactive)
GI50 (SK-MEL-28): 3.99 µM (inactive)
GI50 (Hs-578T): 24.2 µM (inactive)
GI50 (OVCAR-8): 3.31 µM (inactive)
GI50 (DU-145): 36.1 µM (inactive)
GI50 (DMS-273): 6.81 µM (inactive)
GI50 (DLD-1): 2.33 µM (inactive)
GI50 (M14): 2.91 µM (inactive)
GI50 (K562): 2.3 µM (inactive)
GI50 (NCI-H522): 0.526 µM (active)
GI50 (MDA-MB-231): 19.1 µM (inactive)
GI50 (RXF 631): 8.13 µM (inactive)
GI50 (SNB-75): 15.9 µM (inactive)
GI50 (HOP-92): 3.49 µM (inactive)
GI50 (HCC 2998): 14.4 µM (inactive)
GI50 (SF-539): 6.64 µM (inactive)
GI50 (HT-29): 3.9 µM (inactive)
GI50 (UACC-62): 4.26 µM (inactive)
GI50 (XF498): 2.39 µM (inactive)
GI50 (SR): 2.3 µM (inactive)
GI50 (LXFL 529): 1.67 µM (inactive)
GI50 (RXF 393): 1.59 µM (inactive)
GI50 (KM-20L2): 6.98 µM (inactive)
GI50 (MDA-MB-435): 10.6 µM (inactive)
GI50 (U-251): 12.2 µM (inactive)
GI50 (IGROV-1): 23.8 µM (inactive)
GI50 (SN12C): 8.87 µM (inactive)
GI50 (NCI-H460): 19.5 µM (inactive)
GI50 (SF-268): 22.3 µM (inactive)
GI50 (NCI-H23): 8.95 µM (inactive)
GI50 (HCT-116): 2.48 µM (inactive)
GI50 (HL-60): 2.23 µM (inactive)
GI50 (KM12): 12.7 µM (inactive)
GI50 (SF-295): 18 µM (inactive)
GI50 (TK-10): 5.28 µM (inactive)
GI50 (OVCAR-4): 23.3 µM (inactive)
GI50 (SW-620): 1.77 µM (inactive)
GI50 (SNB-78): 2.67 µM (inactive)
GI50 (HOP-62): 19.8 µM (inactive)
GI50 (HCT-15): 2.94 µM
GI50 (T47D): 16.9 µM (inactive)
GI50 (DMS-114): 1.47 µM (inactive)
GI50 (SNB-19): 18 µM (inactive)
GI50 (MCF7): 3.69 µM (inactive)
GI50 (RPMI-8226): 3.53 µM (inactive)
GI50 (UACC-257): 3.57 µM (inactive)
GI50 (PC-3): 16.4 µM (inactive)
GI50 (SK-MEL-5): 11.6 µM (inactive)
GI50 (LOX IMVI): 5.45 µM (inactive)
GI50 (CAKI-1): 3.03 µM (inactive)
GI50 (OVCAR-5): 17.7 µM (inactive)
GI50 (MOLT-4): 1.58 µM (inactive)
GI50 (SK-MEL-2): 6.46 µM (inactive)
GI50 (CCRF-CEM): 1.01 µM (active)
GI50 (ACHN): 3.12 µM (inactive)
